Assay results published in ChEMBL document CHEMBL3627712, “Synthesis and initial evaluation of quinoline-based inhibitors of the SH2-containing inositol 5'-phosphatase (SHIP)” (Bioorg Med Chem Lett, 2015).

Experiments:
[1] = biological target: T1, Phosphatidylinositol 3,4,5-trisphosphate 5-phosphatase 2 (Homo sapiens) (UniProt O15357); assay: Inhibition of recombinant human truncated SHIP2 using PI(3,4,5)P3diC8 at 1 mM after 30 mins by malachite green phosphatase release assay
T1 sequence (whole entry): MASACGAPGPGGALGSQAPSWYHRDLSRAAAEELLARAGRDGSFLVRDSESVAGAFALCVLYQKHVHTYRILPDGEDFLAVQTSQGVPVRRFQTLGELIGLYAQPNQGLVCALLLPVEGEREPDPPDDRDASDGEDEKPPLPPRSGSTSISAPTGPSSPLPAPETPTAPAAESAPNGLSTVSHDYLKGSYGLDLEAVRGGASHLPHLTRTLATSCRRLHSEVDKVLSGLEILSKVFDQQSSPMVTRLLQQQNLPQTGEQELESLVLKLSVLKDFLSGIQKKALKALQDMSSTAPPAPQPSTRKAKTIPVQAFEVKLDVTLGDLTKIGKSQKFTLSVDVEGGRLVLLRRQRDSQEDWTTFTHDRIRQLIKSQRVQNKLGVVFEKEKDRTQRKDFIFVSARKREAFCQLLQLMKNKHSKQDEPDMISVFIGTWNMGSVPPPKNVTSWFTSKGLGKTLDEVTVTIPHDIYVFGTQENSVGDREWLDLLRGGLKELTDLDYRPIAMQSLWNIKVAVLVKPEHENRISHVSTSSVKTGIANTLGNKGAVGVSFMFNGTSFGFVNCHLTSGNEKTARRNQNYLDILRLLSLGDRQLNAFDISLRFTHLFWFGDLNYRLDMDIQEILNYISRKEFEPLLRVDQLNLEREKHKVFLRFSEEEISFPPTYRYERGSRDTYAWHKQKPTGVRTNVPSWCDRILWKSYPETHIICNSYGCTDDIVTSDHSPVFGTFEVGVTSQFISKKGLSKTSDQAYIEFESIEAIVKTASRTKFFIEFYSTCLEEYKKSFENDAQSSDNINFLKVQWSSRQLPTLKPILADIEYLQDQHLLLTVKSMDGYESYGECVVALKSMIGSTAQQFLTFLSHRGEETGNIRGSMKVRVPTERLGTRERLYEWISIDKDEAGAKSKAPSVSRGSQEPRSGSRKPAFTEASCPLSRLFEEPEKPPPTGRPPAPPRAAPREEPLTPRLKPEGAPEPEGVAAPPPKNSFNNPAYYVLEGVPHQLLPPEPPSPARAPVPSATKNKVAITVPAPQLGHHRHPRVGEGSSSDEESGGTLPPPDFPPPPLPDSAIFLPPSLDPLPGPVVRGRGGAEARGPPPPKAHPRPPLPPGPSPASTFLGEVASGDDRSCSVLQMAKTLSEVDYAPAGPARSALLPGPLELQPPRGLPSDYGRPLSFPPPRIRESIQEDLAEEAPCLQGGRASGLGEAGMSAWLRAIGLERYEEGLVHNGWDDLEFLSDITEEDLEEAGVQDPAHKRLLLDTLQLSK

[2] = biological target: T2, Phosphatidylinositol 3,4,5-trisphosphate 5-phosphatase 1 (Homo sapiens) (UniProt Q92835); assay: Inhibition of recombinant human truncated SHIP1 using PI(3,4,5)P3diC8 at 1 mM after 30 mins by malachite green phosphatase release assay
T2 sequence (whole entry): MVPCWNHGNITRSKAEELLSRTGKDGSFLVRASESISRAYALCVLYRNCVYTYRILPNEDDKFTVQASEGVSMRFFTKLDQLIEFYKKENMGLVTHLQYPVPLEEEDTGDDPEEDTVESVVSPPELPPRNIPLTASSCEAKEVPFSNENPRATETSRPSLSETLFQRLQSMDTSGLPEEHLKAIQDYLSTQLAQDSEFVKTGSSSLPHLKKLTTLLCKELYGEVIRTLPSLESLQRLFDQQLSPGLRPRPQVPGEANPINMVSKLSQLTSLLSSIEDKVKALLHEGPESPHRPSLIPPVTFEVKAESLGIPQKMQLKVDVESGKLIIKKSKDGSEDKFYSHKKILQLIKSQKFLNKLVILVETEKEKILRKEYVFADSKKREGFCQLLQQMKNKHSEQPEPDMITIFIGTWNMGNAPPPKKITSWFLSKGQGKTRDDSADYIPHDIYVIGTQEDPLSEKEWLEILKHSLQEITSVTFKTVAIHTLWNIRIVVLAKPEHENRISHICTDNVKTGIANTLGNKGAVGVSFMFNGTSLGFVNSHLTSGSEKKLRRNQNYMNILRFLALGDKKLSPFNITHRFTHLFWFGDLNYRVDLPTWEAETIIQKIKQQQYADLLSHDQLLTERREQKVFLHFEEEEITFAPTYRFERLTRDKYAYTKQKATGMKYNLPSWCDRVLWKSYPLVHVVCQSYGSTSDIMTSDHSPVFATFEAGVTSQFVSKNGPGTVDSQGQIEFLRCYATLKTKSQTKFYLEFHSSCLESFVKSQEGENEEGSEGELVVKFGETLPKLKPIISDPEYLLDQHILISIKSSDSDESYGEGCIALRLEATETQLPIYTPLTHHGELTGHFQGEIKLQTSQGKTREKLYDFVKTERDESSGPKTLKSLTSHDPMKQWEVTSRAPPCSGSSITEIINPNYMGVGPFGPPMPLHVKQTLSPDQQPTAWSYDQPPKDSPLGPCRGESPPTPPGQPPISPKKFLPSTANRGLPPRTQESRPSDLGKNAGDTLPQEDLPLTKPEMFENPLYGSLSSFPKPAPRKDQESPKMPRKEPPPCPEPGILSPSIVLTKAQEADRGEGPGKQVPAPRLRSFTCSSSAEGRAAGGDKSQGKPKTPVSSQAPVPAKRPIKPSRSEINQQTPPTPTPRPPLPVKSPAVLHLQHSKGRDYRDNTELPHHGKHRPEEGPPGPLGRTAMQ

[3] = biological target: T2, Phosphatidylinositol 3,4,5-trisphosphate 5-phosphatase 1 (Homo sapiens); assay: Inhibition of recombinant human truncated SHIP1 using PI(3,4,5)P3diC8 at 500 uM after 30 mins by malachite green phosphatase release assay
[4] = biological target: T1, Phosphatidylinositol 3,4,5-trisphosphate 5-phosphatase 2 (Homo sapiens); assay: Inhibition of recombinant human truncated SHIP2 using PI(3,4,5)P3diC8 at 500 uM after 30 mins by malachite green phosphatase release assay

SMILES | inhibition [1] [%] | inhibition [2] [%] | inhibition [3] [%] | inhibition [4] [%]
C=C[C@H]1CN2CC[C@H]1C[C@@H]2[C@@H](O)c1ccnc2ccc(OC)cc12 | 5 | 19 | – | –
CN[C@@H](C)[C@H](O)c1ccccc1 | 0 | 0 | – | –
OC(c1cc(C23CC4CC(CC(C4)C2)C3)nc2c(Cl)cc(Cl)cc12)C1CCCCN1 (centres undefined) | 73 | 38 | – | –
OC(c1cc(-c2ccccc2)nc2c1ccc1ccccc12)C1CCCCN1 (centres undefined) | 17 | 38 | – | –
OC(c1cc(C(F)(F)F)nc2c(C(F)(F)F)cccc12)C1CCCCN1 (centres undefined) | 54 | 54 | – | –
O=C(O)c1cc(C23CC4CC(CC(C4)C2)C3)nc2c(Cl)cc(Cl)cc12 | – | – | 44 | 0
OCc1cc(-c2ccccc2)nc2c1ccc1ccccc12 | – | – | 2 | 18
O=C(O)c1cc(-c2ccccc2)nc2c1ccc1ccccc12 | – | – | 7 | 0
NCc1cc(-c2ccccc2)nc2c1ccc1ccccc12 | 66 | 41 | – | –
CN[C@@H](C)[C@@H](O)c1ccccc1 | 13 | 2 | – | –
OCc1cc(C23CC4CC(CC(C4)C2)C3)nc2c(Cl)cc(Cl)cc12 | – | – | 0 | 14
C=C[C@H]1CN2CC[C@H]1C[C@H]2[C@H](O)c1ccnc2ccc(OC)cc12 | 8 | 0 | – | –
